Data taken from the supplement of paper PMC6045584.
± gives the standard deviation of the averaged measurements.

What was measured:
[1] = compound: CNC(=O)c1ccc(N2C(=S)N(c3ccc(C#N)c(C(F)(F)F)c3)C(=O)C2(C)C)cc1F [MDV3100]; experiment: surviving fraction relative to DMSO-only wells; higher = less growth inhibition; settings: exposure time: 5 days
Procedure, shortened: (§1)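 Log-phase tumour cell lines, 250–500 cells per well in 384-well plates, received inhibitors at 0.5, 1, 5, 10, 50, 100, 500 and 1000 nM continuously for five days, starting 24 hours after seeding. Viability was quantified with CellTiter-Glo luminescence and normalised to the median of DMSO-only wells to give surviving fraction. Three screens were run per line, and a line stayed in only with replicate Pearson r >0.7 and median Z' >0.3.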

[2] = compound: CC1(C)CC(=O)c2c(C(F)(F)F)nn(-c3ccc(C(N)=O)c(N[C@H]4CC[C@H](OC(=O)CN)CC4)c3)c2C1 [SNX-5422]; experiment: as above; settings: exposure time: 5 days
Procedure, shortened: as §1

| Test System | surviving fraction ([1]; 0.5 nM) | surviving fraction ([1]; 1 nM) | surviving fraction ([1]; 5 nM) | surviving fraction ([1]; 10 nM) | surviving fraction ([1]; 50 nM) | surviving fraction ([1]; 100 nM) | surviving fraction ([1]; 500 nM) | surviving fraction ([1]; 1000 nM) | surviving fraction ([2]; 0.5 nM) | surviving fraction ([2]; 1 nM) | surviving fraction ([2]; 5 nM) | surviving fraction ([2]; 10 nM) | surviving fraction ([2]; 50 nM) | surviving fraction ([2]; 100 nM) | surviving fraction ([2]; 500 nM) | surviving fraction ([2]; 1000 nM) |
| --- | --- | --- | --- | --- | --- | --- | --- | --- | --- | --- | --- | --- | --- | --- | --- | --- |
| HMT3552 BREAST | 1.02 ± 0.073 | 1.02 ± 0.079 | 1.02 ± 0.013 | 1.03 ± 0.065 | 1.14 ± 0.031 | 1.23 ± 0.023 | 1.18 ± 0.053 | 1.24 ± 0.086 | 1.04 | 1.05 | 1.12 | 1.08 | 0.171 | 0.106 | 0.082 | 0.079 |
| NY BONE | 0.886 ± 0.021 | 0.887 ± 0.029 | 0.943 ± 0.035 | 0.933 ± 0.023 | 0.93 ± 0.0093 | 1.01 ± 0.022 | 0.924 ± 0.026 | 0.884 ± 0.039 | 0.9907 ± 0.0074 | 1.01 ± 0.04 | 1.05 ± 0.045 | 1.03 ± 0.047 | 0.086 ± 0.0061 | 0.128 ± 0.012 | 0.0563 ± 0.0047 | 0.054 ± 0.0078 |
| KPD BONE | 0.955 ± 0.071 | 0.975 ± 0.023 | 0.997 ± 0.048 | 0.985 ± 0.044 | 1.04 ± 0.058 | 1.04 ± 0.067 | 0.977 ± 0.19 | 0.938 ± 0.015 | 1 ± 0.015 | 1.03 ± 0.07 | 1.02 ± 0.054 | 0.954 ± 0.026 | 0.265 ± 0.0056 | 0.109 ± 0.004 | 0.0673 ± 0.0015 | 0.0643 ± 0.0067 |
| G292 BONE | 0.9907 ± 0.009 | 1.03 ± 0.02 | 1.03 ± 0.059 | 1.02 ± 0.013 | 0.956 ± 0.032 | 0.985 ± 0.036 | 0.961 ± 0.013 | 0.865 ± 0.024 | 1.01 ± 0.014 | 0.952 ± 0.055 | 1.02 ± 0.033 | 0.994 ± 0.034 | 0.366 ± 0.017 | 0.287 ± 0.028 | 0.081 ± 0.0089 | 0.0853 ± 0.012 |
| SUM149.B1*.S BREAST | 0.994 ± 0.02 | 0.925 ± 0.017 | 0.979 ± 0.063 | 0.578 ± 0.014 | 1.03 ± 0.04 | 0.9605 ± 0.0031 | 1.02 ± 0.011 | 0.694 ± 0.049 | 1.06 ± 0.037 | 1.12 ± 0.032 | 1.09 ± 0.021 | 1.08 ± 0.037 | 0.385 ± 0.022 | 0.226 ± 0.017 | 0.0997 ± 0.0045 | 0.0978 ± 0.0067 |
| CAL51 BREAST | 0.969 ± 0.025 | 0.944 ± 0.014 | 0.985 ± 0.016 | 0.976 ± 0.013 | 0.984 ± 0.029 | 1.05 ± 0.042 | 0.978 ± 0.11 | 0.979 ± 0.082 | 0.902 ± 0.075 | 0.973 ± 0.016 | 1.02 ± 0.036 | 1 ± 0.034 | 0.261 ± 0.036 | 0.077 ± 0.0036 | 0.0237 ± 0.00058 | 0.0263 ± 0.0015 |
| LM7 BONE | 0.992 ± 0.053 | 1.01 ± 0.073 | 1.07 ± 0.096 | 1.06 ± 0.03 | 1.15 ± 0.09 | 1.14 ± 0.087 | 1.07 ± 0.096 | 0.963 ± 0.05 | 1 ± 0.11 | 0.896 ± 0.075 | 0.946 ± 0.059 | 0.904 ± 0.077 | 0.294 ± 0.028 | 0.176 ± 0.0099 | 0.0897 ± 0.0035 | 0.0873 ± 0.01 |
| HCC38 BREAST | 1.02 ± 0.14 | 1.27 ± 0.2 | 1.28 ± 0.038 | 1.1 ± 0.066 | 1.25 ± 0.027 | 1.35 ± 0.11 | 1.28 ± 0.038 | 1.13 ± 0.19 | 1.19 ± 0.18 | 1.09 ± 0.094 | 1.06 ± 0.19 | 1.01 ± 0.15 | 0.219 ± 0.053 | 0.26 ± 0.027 | 0.0927 ± 0.0074 | 0.0897 ± 0.017 |
| SG31 HEADNECK | 0.928 ± 0.059 | 1.06 ± 0.037 | 1.01 ± 0.14 | 1.02 ± 0.14 | 1.07 ± 0.057 | 0.969 ± 0.17 | 1.18 ± 0.18 | 1.06 ± 0.028 | 1.03 ± 0.12 | 1.09 ± 0.22 | 1.05 ± 0.096 | 0.876 ± 0.14 | 0.61 ± 0.024 | 0.187 ± 0.029 | 0.0373 ± 0.0076 | 0.0403 ± 0.006 |
| OSHN BONE | 1.04 ± 0.02 | 1.02 ± 0.019 | 1.025 ± 0.0047 | 1.01 ± 0.015 | 1.067 ± 0.0085 | 1.07 ± 0.04 | 1.07 ± 0.026 | 1.041 ± 0.0068 | 1.1 ± 0.024 | 1.11 ± 0.036 | 1.11 ± 0.012 | 1.1 ± 0.018 | 0.842 ± 0.067 | 0.162 ± 0.0064 | 0.138 ± 0.0047 | 0.136 ± 0.0076 |
| CASKI CERVIX | 0.904 ± 0.031 | 0.894 ± 0.047 | 0.99 ± 0.026 | 0.903 ± 0.059 | 0.944 ± 0.022 | 1.08 ± 0.073 | 0.95 ± 0.046 | 0.992 ± 0.072 | 0.913 ± 0.016 | 0.937 ± 0.021 | 0.932 ± 0.049 | 0.829 ± 0.074 | 0.119 ± 0.02 | 0.0603 ± 0.0035 | 0.031 ± 0.0036 | 0.033 |
| HS578T BREAST | 0.974 ± 0.073 | 1.05 ± 0.041 | 1.03 ± 0.056 | 0.979 ± 0.091 | 1.15 ± 0.096 | 1.02 ± 0.28 | 1.01 ± 0.053 | 0.991 ± 0.085 | 1.07 ± 0.13 | 0.93 ± 0.099 | 0.871 ± 0.056 | 0.992 ± 0.22 | 0.387 ± 0.044 | 0.466 ± 0.021 | 0.298 ± 0.037 | 0.245 ± 0.029 |
